US20080213236A1, “Natural Remedy-Dietary Supplement Combination Product” (priority 2005, published 2008)

Assays:
[1] = single substance; cited from earlier work
[2] = system: patients with rheumatoid arthritis; assay: Treatment of rheumatoid arthritis patients with the individual substances or extracts A-F; format: in vivo, human; details: for alleviation/reduction of joint pain / improvement in joint sensitivity: after two weeks; for Result of treatment, scale of 1-10: individual substance, scale from 1 (scarcely any alleviation of symptoms) to 10 (complete elimination of symptoms)
Description: All the abovementioned active ingredients or medicinal plant extracts A-F were tested singly in the treatment of rheumatoid arthritis. The following products and daily doses were used for this: A. Omega-3 fatty acids: 8 capsules of Ameu® 500 mg. One capsule of Ameu contains 500 mg of fish body oil (fatty oil from […] comprises 70 mg of eicosapentaenoic acid and 50 mg of docosahexaenoic acid (total 120 mg of omega-3 fatty acids). B. α-Tocopherol (vitamin E): 800 to 1000 I.U. once a day. C. Ascorbic acid (vitamin C): 3 g in three 1000 mg doses. D. Selenium: 300 μg of selenium as sodium selenite 5H2O ([…]® or […]®) once a day. E. Harpagophytum: 2×480 mg of dry extract once a day (extractant: ethanol 60% (V/V) (BIOCUR Arzneimittel GmbH). F. Boswellia serrata: 3×400 mg of dry extract once a day (H 15 Gufic tablets (Gufic Chem, India)). […] A positive rheumatoid factor was not obligatory. All the treated patients had elevated C-reactive protein and frequently raised ferritin as signs of inflammation. Bacterial and parasitic causes, and allergies (including yersinia, staphylococci, streptococci, mycoplasma, Whipple's disease, borreliosis and gluten allergies) were excluded. […] All the patients had discontinued their previous medication (morphine, ibuprofen, cortisol, etc.) at least one week before starting the treatment, or had received no medical therapy over a prolonged period because of toxic side effects of other medicaments. The results of treatment were classified on a scale of from 1 (scarcely any alleviation of symptoms) to 10 (complete elimination of symptoms).

rheumatoid arthritis = details: vitamin E alone, 1200 mg/day, without influencing the immune markers; cited from earlier work

Structure (SMILES) | effectiveness compared with total root extract [1] | alleviation/reduction of joint pain [2] | improvement in joint sensitivity [2] | Result of treatment, scale of 1-10 [2] | pain (rheumatoid arthritis)
C[C@]1(OC(=O)/C=C/c2ccccc2)C[C@@H](O)[C@]2(O)C=CO[C@@H](O[C@@H]3O[C@H](CO)[C@@H](O)[C@H](O)[C@H]3O)[C@@H]21 [Harpagoside] | far less effective than the total root extract | – | – | – | –
Cc1c(C)c2c(c(C)c1O)CC[C@@](C)(CCC[C@H](C)CCC[C@H](C)CCCC(C)C)O2 [α-Tocopherol (vitamin E), α-Tocopherol] | – | 5% | 10% | 3.0 | alleviation of pain
O=C1O[C@H]([C@@H](O)CO)C(O)=C1O [Ascorbic acid (vitamin C), Ascorbic acid] | – | 2-5% | 5-10% | 2 | –
